According to DBAASP:
In brackets after ≈: the same amount, converted by molar mass. Several values for one entry are separate records, joined by “and”; a condition that tells them apart may be missing. Identical values can stand only once. Blank lines part the entries; values can stand above or below the compound they belong to.

How the values were obtained:
Assay in all cases: ≥ marks a high value that may be exact or a test limit, other limits are often not marked, values filed in µg/mL are converted to µM
[1] = test system: Salmonella enterica subsp. enterica serovar Enteritidis ATCC 13076
[2] = test system: Staphylococcus aureus ATCC 15752
[3] = test system: Bacillus subtilis ATCC 62037
[4] = test system: Saccharomyces cerevisiae ATCC 44774
[5] = test system: Streptococcus mutans ATCC 25175
[6] = test system: Candida albicans ATCC 10231
[7] = test system: Pseudomonas putida ATCC 17426
[8] = test system: Cryptococcus neoformans ATCC 34881
[9] = test system: Escherichia coli ATCC 27325
[10] = test system: Staphylococcus aureus ATCC 6538P
[11] = test system: Trypanosoma brucei brucei GUT Tat3.1
[12] = test system: Staphylococcus aureus KO-4
Pseudomonas aeruginosa = test system: Pseudomonas aeruginosa
[13] = test system: Trichophyton mentagrophytes IFO 5466
Lactococcus garvieae = test system: Lactococcus garvieae
[14] = test system: Vibrio anguillarum serotype O1
[15] = test system: Acinetobacter baumannii ATCC BAA-747
[16] = test system: Staphylococcus aureus BCRC 10781
[17] = test system: Streptococcus equinus BCRC 14729
[18] = test system: Yersinia enterocolitica BCRC 13999
[19] = test system: Escherichia coli BCRC 10675
[20] = test system: Pseudomonas aeruginosa ATCC 27583
[21] = test system: Enterococcus faecium ATCC 700221
[22] = test system: Klebsiella aerogenes BCRC 10370
[23] = test system: Staphylococcus xylosus BCRC 12930
Streptococcus iniae = test system: Streptococcus iniae
[24] = test system: Vibrio parahaemolyticus BCRC 10806
[25] = test system: Klebsiella oxytoca BCRC 13985
[26] = test system: Escherichia coli IFO 12734
[27] = test system: Klebsiella pneumoniae ATCC 700603
Vibrio parahaemolyticus = test system: Vibrio parahaemolyticus
Vibrio harveyi = test system: Vibrio harveyi
[28] = test system: Staphylococcus aureus IFO 12732
[29] = test system: Vibrio alginolyticus BCRC 12829
[30] = test system: Escherichia coli ATCC 25922
[31] = test system: Staphylococcus aureus ATCC 43300
[32] = test system: Listeria monocytogenes BCRC 14845
Vibrio alginolyticus = test system: Vibrio alginolyticus
[33] = test system: Enterobacter cloacae BCRC 10401
[34] = test system: Staphylococcus aureus BCRC 10780
[35] = test system: Pseudomonas aeruginosa IFO 12582
[36] = test system: Bacillus subtilis IFO 3134
[37] = test system: Pseudomonas aeruginosa BCRC 10944
[38] = test system: Pediococcus acidilactici CH
[39] = test system: Lacticaseibacillus casei NCDO 2713
[40] = test system: Latilactobacillus sakei 706
[41] = test system: Pediococcus pentosaceus Pac1.0
[42] = test system: Latilactobacillus sakei NCDO 2714
[43] = test system: Latilactobacillus curvatus 89
[44] = test system: Pediococcus pentosaceus NCDO 990
[45] = test system: Lacticaseibacillus casei subsp. casei NCDO 161
[46] = test system: Weissella viridescens NCDO 1655
[47] = test system: Lactiplantibacillus plantarum UI50
[48] = test system: Carnobacterium maltaromaticum UI49

MIC [1]: ≥ 88.8 µM
MIC [2]: ≥ 88.8 µM
MIC [3]: ≥ 44.4 µM
MIC [4]: ≥ 88.8 µM
MIC [5]: ≥ 88.8 µM
MIC [6]: > 88.8 µM
MIC [7]: ≥ 44.4 µM
MIC [8]: ≥ 88.8 µM
MIC [9]: ≥ 88.8 µM
SMILES: CC(C)[C@H](NC(=O)[C@H](CCCCN)NC(=O)CNC(=O)CNC(=O)[C@H](CCC(N)=O)NC(=O)[C@H](CCCCN)NC(=O)CNC(=O)[C@H](CCCN=C(N)N)NC(=O)CNC(=O)[C@@H](N)CCCCN)C(=O)N[C@@H](CCCN=C(N)N)C(=O)N[C@@H](C)C(=O)N[C@@H](CCCCN)C(=O)N[C@@H](C)C(=O)O [KGRGKQGGKVRAKA]

MIC [10]: 0.837 µM and 1.67 µM
MIC [11]: ≥ 500 µM
MIC [12]: ≥ 502 µM
MIC (Pseudomonas aeruginosa): 669 µM (≈ 799 µg/mL)
MIC [13]: ≥ 41.8 µM
SMILES: CC[C@H](C)[C@H](NC(=O)[C@H](CCCN=C(N)N)NC(=O)[C@H](CC(C)C)NC(=O)[C@H](CCCN=C(N)N)NC(=O)[C@H](CC(C)C)NC(=O)[C@@H](N)CCCN=C(N)N)C(=O)NCC(=O)N[C@@H](CCCN=C(N)N)C(=O)N[C@@H](CCCN=C(N)N)C(N)=O [RLRLRIGRR]

MIC (Lactococcus garvieae): 12.8 µM (≈ 32 µg/mL)
MIC [14]: 3.19 µM (≈ 8 µg/mL)
MIC [15]: 8 µM (≈ 20 µg/mL)
MIC [16]: ≥ 51.1 µM
MIC [17]: ≥ 51.1 µM
MIC [18]: ≥ 51.1 µM
MIC [19]: 25.5 µM (≈ 64 µg/mL)
MIC [20]: ≥ 32 µM
MIC [21]: 16 µM (≈ 40.1 µg/mL)
MIC [22]: ≥ 51.1 µM
MIC [23]: ≥ 51.1 µM
MIC (Streptococcus iniae): ≥ 51.1 µM
MIC [25]: 25.5 µM (≈ 64 µg/mL)
MIC [26]: 4.79 µM (≈ 12 µg/mL)
MIC [27]: 64 µM (≈ 160 µg/mL)
MIC (Vibrio harveyi): ≥ 51.1 µM
MIC [28]: 9.98 µM (≈ 25 µg/mL)
MIC [29]: ≥ 51.1 µM
MIC [30]: 8 µM (≈ 20 µg/mL)
MIC [31]: > 128 µM
MIC [32]: ≥ 51.1 µM
MIC (Vibrio alginolyticus): ≥ 51.1 µM
MIC [33]: 12.8 µM (≈ 32 µg/mL)
MIC [34]: ≥ 51.1 µM
MIC [35]: 9.98 µM (≈ 25 µg/mL)
MIC [36]: 9.98 µM (≈ 25 µg/mL)
MIC [37]: 25.5 µM (≈ 64 µg/mL)
SMILES: CC[C@H](C)[C@H](NC(=O)CN)C(=O)NCC(=O)N[C@@H](CCCCN)C(=O)N[C@@H](Cc1ccccc1)C(=O)N[C@@H](CC(C)C)C(=O)N[C@@H](Cc1cnc[nH]1)C(=O)N[C@@H](CO)C(=O)N[C@@H](C)C(=O)N[C@@H](CCCCN)C(=O)N[C@@H](CCCCN)C(=O)N[C@@H](Cc1c[nH]c2ccccc12)C(=O)NCC(=O)N[C@@H](CCCCN)C(=O)N[C@@H](C)C(=O)N[C@@H](Cc1ccccc1)C(=O)N[C@H](C(=O)NCC(=O)N[C@@H](CCC(=O)O)C(=O)N[C@H](C(=O)N[C@@H](CCSC)C(=O)N[C@@H](CC(N)=O)C(=O)N[C@@H](CO)C(N)=O)[C@@H](C)CC)C(C)C [GIGKFLHSAKKWGKAFVGEIMNS]
MIC [24]: ≥ 51.1 µM
MIC (Vibrio parahaemolyticus): 1.6 µM (≈ 4 µg/mL)

MIC [38]: 0.4 µM (≈ 1.17 µg/mL)
MIC [39]: 0.4 µM (≈ 1.17 µg/mL)
MIC [40]: 0.4 µM (≈ 1.17 µg/mL)
MIC [41]: 0.05 µM (≈ 0.146 µg/mL)
MIC [42]: 0.05 µM (≈ 0.146 µg/mL)
MIC [43]: 0.4 µM (≈ 1.17 µg/mL)
MIC [44]: 0.4 µM (≈ 1.17 µg/mL)
MIC [45]: 0.4 µM (≈ 1.17 µg/mL)
MIC [46]: 0.005 µM (≈ 0.0146 µg/mL)
MIC [48]: 0.4 µM (≈ 1.17 µg/mL)
SMILES: CC[C@H](C)[C@H](NC(=O)[C@H](C)NC(=O)[C@H](CCCNC(=N)N)NC(=O)CNC(=O)[C@H](C)NC(=O)[C@H](CCC(=O)O)NC(=O)CNC(=O)[C@H](CC(=O)O)NC(=O)[C@H](Cc1ccc(O)cc1)NC(=O)[C@H](Cc1ccccc1)NC(=O)CNC(=O)[C@H](CCCCN)NC(=O)[C@H](CCCNC(=N)N)NC(=O)[C@H](CC(C)C)NC(=O)[C@H](CO)NC(=O)[C@H](CO)NC(=O)[C@H](Cc1c[nH]c2ccccc12)NC(=O)[C@H](Cc1ccccc1)NC(=O)[C@H](CC(N)=O)NC(=O)[C@H](CCCCN)NC(=O)[C@H](Cc1c[nH]c2ccccc12)NC(=O)[C@H](C)NC(=O)CN)C(=O)N[C@@H](CCCNC(=N)N)C(=O)N[C@@H](CCCNC(=N)N)C(=O)O [GAWKNFWSSLRKGFYDGEAGRAIRR]
MIC [47]: 0.4 µM (≈ 1.17 µg/mL)
